From patent publication US10870651B2, “Inhibitors of cyclin-dependent kinase 7 (CDK7)” (Dana-Farber Cancer Institute, Inc., priority 2014, dated 2020)

How the values were obtained:
[1] = target: CDK7 (Homo sapiens (Human), UniProt P50613); test: Inhibition of kinase activity, CDK7; format: biochemical; details: co-factors cyclin H and MNAT1
Method: (§1) Compounds of the invention were assayed for activity against a variety of different kinases. Exemplary results are presented as calculated IC50 values (Table A1 & A2). In Table A1 and A2 “A” represents a calculated IC50 value of less than 100 nM; “B” represents a calculated IC50 value of greater than or equal to 100 nM and less than 1 μM; and “C” represents a calculated IC50 value of 1 μM or greater. The co-factors used for each kinase in the assays were as follows: CDK7: cyclin H and MNAT1; CDK2: cyclin A; CDK9: cyclin K.

[2] = system: Kelly neuroblastoma; test: Inhibition of cell proliferation (CellTiter-Glo), Kelly; format: cell-based; details: 72 hours incubation, CellTiter-Glo, 4,000 cells/well
Method: (§2) Exemplary compounds of the invention were tested at different concentrations. Cells were plated in 96-well plates at the following seeding densities: Jurkat T-cell acute lymphoblastic leukemia 25,000 cells/well; HCT116 colorectal carcinoma 8,000 cells/well; Kelly neuroblastoma 4,000 cells/well. The cells were treated with various concentration of compounds (ranging from 1 nM to 10 μM). DMSO solvent with no compound served as a control. Following incubation for 72 hours, cell survival following treatment with exemplary compounds described herein was assessed by CellTiter-Glo® Luminescent cell viability assay (Promega). IC50 values were determined using GRAPHPAD PRISM 6 software. Exemplary results are shown in Table A3, wherein “A” represents a calculated IC50 value of less than 500 nM; “B” represents a calculated IC50 value of greater than or equal to 500 nM and less than 5000 μM; and “C” represents a calculated IC50 value of 5000 μM or greater

[3] = system: HCT116 colorectal carcinoma; test: Inhibition of cell proliferation (CellTiter-Glo), HCT116; format: cell-based; details: Homo sapiens, HCT-116; 72 hours incubation, CellTiter-Glo, 8,000 cells/well
Method: as §2

[4] = system: Jurkat T-cell acute lymphoblastic leukemia; test: Inhibition of cell proliferation (CellTiter-Glo), Jurkat; format: cell-based; details: Homo sapiens, 72 hours incubation, CellTiter-Glo, 25,000 cells/well
Method: as §2

[5] = target: MELK (Homo sapiens (Human), UniProt Q14680); test: Inhibition of kinase activity, MELK; format: biochemical
MELK, sequence (Q14680 whole entry): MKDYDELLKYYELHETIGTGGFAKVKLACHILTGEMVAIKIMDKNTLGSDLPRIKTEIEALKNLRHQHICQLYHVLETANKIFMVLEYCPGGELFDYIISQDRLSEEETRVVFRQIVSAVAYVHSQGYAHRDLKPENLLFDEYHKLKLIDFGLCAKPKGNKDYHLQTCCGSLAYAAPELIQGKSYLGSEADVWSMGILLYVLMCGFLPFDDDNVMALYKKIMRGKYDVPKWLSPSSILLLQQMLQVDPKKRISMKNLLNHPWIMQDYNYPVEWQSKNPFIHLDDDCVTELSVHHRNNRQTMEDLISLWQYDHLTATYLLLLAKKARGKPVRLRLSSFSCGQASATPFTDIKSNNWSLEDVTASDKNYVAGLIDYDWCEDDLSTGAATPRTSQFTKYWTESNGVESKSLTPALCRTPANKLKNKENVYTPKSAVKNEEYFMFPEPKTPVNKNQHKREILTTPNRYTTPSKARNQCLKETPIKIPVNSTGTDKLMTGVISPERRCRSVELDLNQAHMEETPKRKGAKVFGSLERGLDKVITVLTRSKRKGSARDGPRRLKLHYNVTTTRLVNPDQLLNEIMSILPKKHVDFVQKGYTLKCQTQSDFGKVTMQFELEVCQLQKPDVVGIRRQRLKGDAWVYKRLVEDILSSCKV
Method: as §1

CDK7, sequence (P50613 whole entry): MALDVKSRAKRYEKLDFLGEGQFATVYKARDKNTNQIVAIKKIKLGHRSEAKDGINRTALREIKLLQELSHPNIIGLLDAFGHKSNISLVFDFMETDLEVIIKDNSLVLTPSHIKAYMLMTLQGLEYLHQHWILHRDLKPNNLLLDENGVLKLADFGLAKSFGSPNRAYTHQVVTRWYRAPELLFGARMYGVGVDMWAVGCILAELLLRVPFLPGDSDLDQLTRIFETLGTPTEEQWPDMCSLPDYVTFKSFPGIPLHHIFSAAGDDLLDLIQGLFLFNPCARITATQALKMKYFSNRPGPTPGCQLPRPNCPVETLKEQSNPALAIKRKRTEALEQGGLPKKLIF
CDK7, sequence (P51946 whole entry partner): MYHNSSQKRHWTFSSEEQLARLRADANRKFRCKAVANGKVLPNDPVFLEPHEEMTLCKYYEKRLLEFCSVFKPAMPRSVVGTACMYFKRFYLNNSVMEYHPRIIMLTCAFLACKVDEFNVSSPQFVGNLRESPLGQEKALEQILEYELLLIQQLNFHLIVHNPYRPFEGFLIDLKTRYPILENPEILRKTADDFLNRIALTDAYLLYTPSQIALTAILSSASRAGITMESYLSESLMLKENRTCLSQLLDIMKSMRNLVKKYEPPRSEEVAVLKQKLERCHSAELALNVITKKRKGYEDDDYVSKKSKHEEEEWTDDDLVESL
CDK7, sequence (P51948 whole entry partner): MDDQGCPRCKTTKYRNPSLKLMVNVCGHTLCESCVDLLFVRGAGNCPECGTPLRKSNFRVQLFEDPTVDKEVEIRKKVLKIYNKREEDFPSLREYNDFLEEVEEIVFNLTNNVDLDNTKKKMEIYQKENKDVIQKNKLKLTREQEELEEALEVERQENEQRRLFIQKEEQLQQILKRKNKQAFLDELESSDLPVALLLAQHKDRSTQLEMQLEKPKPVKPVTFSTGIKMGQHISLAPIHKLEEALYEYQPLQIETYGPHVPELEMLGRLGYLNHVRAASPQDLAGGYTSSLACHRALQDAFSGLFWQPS

Compound | IC50 [1] [µM] | other results
C=CC(=O)Nc1ccc(C(=O)Nc2ccc(Nc3n[nH]c4c3CN(C(=O)N[C@H](CN(C)C)c3ccccc3)C4(C)C)cc2)cc1 [Compound 102, (S)-3-((4-(4-acrylamidobenzamido)phenyl)amino)-N-(2-(dimethylamino)-1-phenylethyl)-6,6-dimethyl-4,6-dihydropyrrolo[3,4-c]pyrazole-5(1H)-carboxamide] | < 0.1 | IC50 [2]: ≥ 5000 µM
CCC(=O)Nc1ccc(C(=O)Nc2cccc(Nc3n[nH]c4c3CN(C(=O)N[C@H](CN(C)C)c3ccccc3)C4(C)C)c2)cc1 [Compound 104, (S)-N-(2-(dimethylamino)-1-phenylethyl)-6,6-dimethyl-3-((3-(4-propionamidobenzamido)phenyl)amino)-4,6-dihydropyrrolo[3,4-c]pyrazole-5(1H)-carboxamide] | < 0.1 | IC50 [3]: 0.5 to 5000 µM; IC50 [4]: 0.5 to 5000 µM
C=CC(=O)Nc1ccc(C(=O)Nc2cccc(Nc3n[nH]c4c3CN(C(=O)NCCN(C)C)C4(C)C)c2)cc1 [Compound 106, 3-((3-(4-acrylamidobenzamido)phenyl)amimo)-N-(2-(dimethylamino)ethyl)-6,6-dimethyl-4,6-dihydropyrrolo[3,4-c]pyrazole-5(1H)-carboxamide] | 0.1 to 1 | IC50 [5]: 0.1 to 1 µM; IC50 [2]: ≥ 5000 µM
C=CC(=O)Nc1ccc(C(=O)Nc2cccc(Nc3n[nH]c4c3CN(C(=O)N3CCN(C)CC3)C4(C)C)c2)cc1 [Compound 107, 4-acrylamido-N-(3-((6,6-dimethyl-5-(4-methylpiperazine-1-carbonyl)-1,4,5,6-tetrahydropyrrolo[3,4-c]pyrazol-3-yl)amino)phenyl)benzamide] | < 0.1 | IC50 [4]: 0.5 to 5000 µM
C=CC(=O)Nc1ccc(C(=O)Nc2cccc(C(=O)Nc3n[nH]c4c3CN(C(=O)N[C@H](CN(C)C)c3ccccc3)C4(C)C)c2)cc1 [Compound 112, (S)-3-(3-(4-acrylamidobenzamido)benzamido)-N-(2-(dimethylamino)-1-phenylethyl)-6,6-dimethyl-4,6-dihydropyrrolo[3,4-c]pyrazole-5(1H)-carboxamide] | < 0.1 | IC50 [2]: 0.5 to 5000 µM
C=CC(=O)N[C@H]1CC[C@H](C(=O)Nc2n[nH]c3c2CN(C(=O)N[C@H](CN(C)C)c2ccccc2)C3(C)C)CC1 [Compound 222, 3-((1r,4S)-4-acrylamidocyclohexane-1-carboxamido)-N-((S)-2-(dimethylamino)-1-phenylethyl)-6,6-dimethyl-4,6-dihydropyrrolo[3,4-c]pyrazole-5(1H)-carboxamide] | < 0.1 | 
C=CC(=O)N1CCC(Nc2n[nH]c3c2CN(C(=O)N[C@H](CN(C)C)c2ccccc2)C3(C)C)CC1 [Compound 231, (5)-3-((1-acryloylpiperidin-4-yl)amino)-N-(2-(dimethylamino)-1-phenylethyl)-6,6-dimethyl-4,6-dihydropyrrolo[3,4-c]pyrazole-5(1H)-carboxamide] | < 0.1 | 
C=CC(=O)N1CCCC(Nc2n[nH]c3c2CN(C(=O)N[C@H](CN(C)C)c2ccccc2)C3(C)C)C1 (stereo partly drawn) [Compound 232, 3-((1-acryloylpiperidin-3-yl)amino)-N-((S)-2-(dimethylamino)-1-phenylethyl)-6,6-dimethyl-4,6-dihydropyrrolo[3,4-c]pyrazole-5(1H)-carboxamide] | < 0.1 | 
C=CC(=O)Nc1ccc(C(=O)Nc2n[nH]c3c2CN(C(=O)N[C@H](CN(C)C)c2ccccc2)C32CC2)cc1 [Compound 233, (S)-3′-(4-acrylamidobenzamido)-N-(2-(dimethylamino)-1-phenylethyl)-1′,4′-dihydro-5′H-spiro[cyclopropane-1,6′-pyrrolo[3,4-c]pyrazole]-5′-carboxamide] | < 0.1 | 
C=CC(=O)Nc1ccc(C(=O)Nc2n[nH]c3c2CN(C(=O)N[C@H](CN(C)C)c2ccccc2)[C@@H]3C(C)C)cc1 [Compound 234, (R)-3-(4-acrylamidobenzamido)-N-((S)-2-(dimethylamino)-1-phenylethyl)-6-isopropyl-4,6-dihydropyrrolo[3,4-c]pyrazole-5(1H)-carboxamide] | < 0.1 | 
C=CC(=O)Nc1ccc(C(=O)Nc2n[nH]c3c2CN(C(=O)N[C@H](CN(C)C)c2ccccc2)[C@H]3C(C)C)cc1 [Compound 235, (S)-3-(4-acrylamidobenzamido)-N-((S)-2-(dimethylamino)-1-phenylethyl)-6-isopropyl-4,6-dihydropyrrolo[3,4-c]pyrazole-5(1H)-carboxamide] | ≥ 1 | 
C=CC(=O)Nc1ccc(C(=O)Nc2n[nH]c3c2CN(C(=O)N[C@H](CN(C)C)c2ccccc2)C32CCCCC2)cc1 [Compound 236, (S)-3′-(4-acrylamidobenzamido)-N-(2-(dimethylamino)-1-phenylethyl)-1′,4′-dihydro-5′H-spiro(cyclohexane-1,6′-pyrrolo[3,4-c]pyrazole]-5′-carboxamide] | 0.1 to 1 | 
C=CC(=O)Nc1ccc(C(=O)Nc2n[nH]c3c2CN(C(=O)N[C@H](CN(C)C)c2ccccc2)[C@@H]3c2ccccc2)cc1 [Compound 237, (R)-3-(4-acrylamidobenzamido)-N-((S)-2-(dimethylamino)-1-phenylethyl)-6-phenyl-4,6-dihydropyrrolo[3,4-c]pyrazole-5(1H)-carboxamide] | ≥ 1 | 
C=CC(=O)Nc1ccc(C(=O)Nc2n[nH]c3c2CN(C(=O)N[C@H](CN(C)C)c2ccccc2)[C@H]3c2ccccc2)cc1 [Compound 239, (S)-3-(4-acrylamidobenzamido)-N-((S)-2-(dimethylamino)-1-phenylethyl)-6-phenyl-4,6-dihydropyrrolo[3,4-c]pyrazole-5(1H)-carboxamide] | ≥ 1 | 
C=CC(=O)Nc1cccc(C(=O)Nc2nn(C)c3c2CN(C(=O)N[C@H](CN(C)C)c2ccccc2)C3(C)C)c1 [Compound 241, (S)-3-(3-acrylamidobenzamido)-N-(2-(dimethylamino)-1-phenylethyl)-1,6,6-trimethyl-4,6-dihydropyrrolo[3,4-c]pyrazole-5(1H)-carboxamide] | < 0.1 | 
C=CC(=O)Nc1ccc(C(=O)Nc2c3c(nn2C)C(C)(C)N(C(=O)N[C@H](CN(C)C)c2ccccc2)C3)cc1 [Compound 242, (S)-3-(4-acrylamidobenzamido)-N-(2-(dimethylamino)-1-phenylethyl)-2,6,6-trimethyl-2,6-dihydropyrrolo[3,4-c]pyrazole-5(4H)-carboxamide] | ≥ 1 | 
C=CC(=O)Nc1ccc(C(=O)Nc2nn(C)c3c2CN(C(=O)N[C@H](CN(C)C)c2ccccc2)C3(C)C)c(OC)c1 [Compound 243, (S)-3-(4-acrylamido-2-methoxybenzamido)-N-(2-(dimethylamino)-1-phenylethyl)-1,6,6-trimethyl-4,6-dihydropyrrolo[3,4-c]pyrazole-5(1H)-carboxamide] | ≥ 1 | 
C=CC(=O)Nc1ccc(C(=O)Nc2c3c(nn2C)C(C)(C)N(C(=O)N[C@H](CN(C)C)c2ccccc2)C3)c(OC)c1 [Compound 244, (S)-3-(4-acrylamido-2-methoxybenzamido)-N-(2-(dimethylamino)-1-phenylethyl)-2,6,6-trimethyl-2,6-dihydropyrrolo[3,4-c]pyrazole-5(4H)-carboxamide] | ≥ 1 | 
C=CC(=O)Nc1ccc(C(=O)Nc2nn(C)c3c2CN(C(=O)O[C@H](CN(C)C)c2ccccc2)C3(C)C)cc1 [Compound 246, (S)-2-(dimethylamino)-1-phenylethyl 3-(4-acrylamidobenzamido)-1,6,6-trimethyl-4,6-dihydropyrrolo[3,4-c]pyrazole-5(1H)-carboxylate] | 0.1 to 1 | 
